#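 Where inhibition never reached the appropriate level, the endpoint shown equals the highest concentration tested. Otherwise, values were interpolated linearly from a five-concentration, 48-hour dose response in 96-well plates. At the GI50, growth is halved.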 Calls of active or inactive are those of the source. Rule as the data show it: active = GI50 up to about 1.1 µM and inactive = higher.
# Experiments:
# Test in all cases: inhibition of tumour cell growth, NCI panel, 48 h
# [1] = test system: HOP-18
# [2] = test system: HT-29
# [3] = test system: HCT-15
# [4] = test system: Malme-3M
# [5] = test system: ACHN
# [6] = test system: SF-295
# [7] = test system: K562
# [8] = test system: M19-MEL
# [9] = test system: IGROV-1
# [10] = test system: HCT-116
# [11] = test system: SK-OV-3
# [12] = test system: RPMI-8226
# [13] = test system: CCRF-CEM
# [14] = test system: OVCAR-4
# [15] = test system: SNB-19
# [16] = test system: SNB-75
# [17] = test system: HL-60
# [18] = test system: TK-10
# [19] = test system: HCC 2998
# [20] = test system: LXFL 529
# [21] = test system: OVCAR-3
# [22] = test system: A498
# [23] = test system: U-251
# [24] = test system: DMS-114
# [25] = test system: CAKI-1
# [26] = test system: UACC-257
# [27] = test system: NCI-H23
# [28] = test system: SF-268
# [29] = test system: UACC-62
# [30] = test system: DMS-273
# [31] = test system: DLD-1
# [32] = test system: M14
# [33] = test system: OVCAR-5
# [34] = test system: LOX IMVI
# [35] = test system: SN12C
# [36] = test system: EKVX
# [37] = test system: NCI-H226
# [38] = test system: A549
# [39] = test system: SR
# [40] = test system: HOP-62
# [41] = test system: MOLT-4
# [42] = test system: SK-MEL-5
# [43] = test system: OVCAR-8
# [44] = test system: SW-620
# [45] = test system: UO-31
# [46] = test system: KM-20L2
# [47] = test system: SNB-78
# [48] = test system: SF-539
# [49] = test system: NCI-H460
# [50] = test system: SK-MEL-2
# [51] = test system: KM12
# [52] = test system: COLO 205
# [53] = test system: NCI-H522
# [54] = test system: 786-0
# [55] = test system: SK-MEL-28
# [56] = test system: RXF 393
# [57] = test system: HOP-92
# [58] = test system: XF498
compound,measurement,setting,value
C/C(CN1C(=O)c2ccccc2C1=O)=N\NS(=O)(=O)c1ccc2ccccc2c1,GI50,[1],> 100 µM (inactive)
same,GI50,[2],> 100 µM (inactive)
same,GI50,[3],> 100 µM
same,GI50,[4],> 100 µM (inactive)
same,GI50,[5],> 100 µM (inactive)
same,GI50,[6],> 100 µM (inactive)
same,GI50,[7],> 100 µM (inactive)
same,GI50,[8],> 100 µM (inactive)
same,GI50,[9],> 100 µM (inactive)
same,GI50,[10],> 100 µM (inactive)
same,GI50,[11],> 100 µM (inactive)
same,GI50,[12],> 100 µM (inactive)
same,GI50,[13],> 100 µM (inactive)
same,GI50,[14],> 100 µM (inactive)
same,GI50,[15],> 100 µM (inactive)
same,GI50,[16],32.1 µM (inactive)
same,GI50,[17],> 100 µM (inactive)
same,GI50,[18],> 100 µM (inactive)
same,GI50,[19],> 100 µM (inactive)
same,GI50,[20],> 100 µM (inactive)
same,GI50,[21],> 100 µM (inactive)
same,GI50,[22],> 100 µM (inactive)
same,GI50,[23],> 100 µM (inactive)
same,GI50,[24],> 100 µM (inactive)
same,GI50,[25],> 100 µM (inactive)
same,GI50,[26],> 100 µM (inactive)
same,GI50,[27],> 100 µM (inactive)
same,GI50,[28],88.5 µM (inactive)
same,GI50,[29],> 100 µM (inactive)
same,GI50,[30],> 100 µM (inactive)
same,GI50,[31],> 100 µM (inactive)
same,GI50,[32],> 100 µM (inactive)
same,GI50,[33],> 100 µM (inactive)
same,GI50,[34],> 100 µM (inactive)
same,GI50,[35],> 100 µM (inactive)
same,GI50,[36],> 100 µM (inactive)
same,GI50,[37],> 100 µM (inactive)
same,GI50,[38],> 100 µM (inactive)
same,GI50,[39],> 100 µM (inactive)
same,GI50,[40],> 100 µM (inactive)
same,GI50,[41],> 100 µM (inactive)
same,GI50,[42],> 100 µM (inactive)
same,GI50,[43],> 100 µM (inactive)
same,GI50,[44],> 100 µM (inactive)
same,GI50,[45],> 100 µM (inactive)
same,GI50,[46],> 100 µM (inactive)
same,GI50,[47],> 100 µM (inactive)
same,GI50,[48],> 100 µM (inactive)
same,GI50,[49],> 100 µM (inactive)
same,GI50,[50],> 100 µM (inactive)
same,GI50,[51],> 100 µM (inactive)
same,GI50,[52],> 100 µM (inactive)
same,GI50,[53],57.7 µM (inactive)
same,GI50,[54],> 100 µM (inactive)
same,GI50,[55],> 100 µM (inactive)
C=CC[C@H](C[C@H](C[C@H](C[C@H](C[C@H](C[C@H](C[C@H](C[C@H](C[C@H](C[C@H](CCCCC)OC)OC)OC)OC)OC)OC)OC)OC)OC)OC,GI50,[1],> 100 µM (inactive)
same,GI50,[2],> 100 µM (inactive)
same,GI50,[56],66.4 µM (inactive)
same,GI50,[4],> 100 µM (inactive)
same,GI50,[5],> 100 µM (inactive)
same,GI50,[6],> 100 µM (inactive)
same,GI50,[7],70.3 µM (inactive)
same,GI50,[8],> 100 µM (inactive)
same,GI50,[9],> 100 µM (inactive)
same,GI50,[10],82.6 µM (inactive)
same,GI50,[11],> 100 µM (inactive)
same,GI50,[12],52.4 µM (inactive)
same,GI50,[13],> 100 µM (inactive)
same,GI50,[14],> 100 µM (inactive)
same,GI50,[15],83.2 µM (inactive)
same,GI50,[16],58.1 µM (inactive)
same,GI50,[17],52.5 µM (inactive)
same,GI50,[18],> 100 µM (inactive)
same,GI50,[19],> 100 µM (inactive)
same,GI50,[57],> 100 µM (inactive)
same,GI50,[21],> 100 µM (inactive)
same,GI50,[22],85.7 µM (inactive)
same,GI50,[23],> 100 µM (inactive)
same,GI50,[24],52.6 µM (inactive)
same,GI50,[25],> 100 µM (inactive)
same,GI50,[26],70.8 µM (inactive)
same,GI50,[27],98.6 µM (inactive)
same,GI50,[28],> 100 µM (inactive)
same,GI50,[29],> 100 µM (inactive)
same,GI50,[30],> 100 µM (inactive)
same,GI50,[31],> 100 µM (inactive)
same,GI50,[32],> 100 µM (inactive)
same,GI50,[33],> 100 µM (inactive)
same,GI50,[34],> 100 µM (inactive)
same,GI50,[35],> 100 µM (inactive)
same,GI50,[36],> 100 µM (inactive)
same,GI50,[37],62.2 µM (inactive)
same,GI50,[38],> 100 µM (inactive)
same,GI50,[39],36.6 µM (inactive)
same,GI50,[40],> 100 µM (inactive)
same,GI50,[41],41.8 µM (inactive)
same,GI50,[42],52.7 µM (inactive)
same,GI50,[43],> 100 µM (inactive)
same,GI50,[58],41.6 µM (inactive)
same,GI50,[44],> 100 µM (inactive)
same,GI50,[45],50.7 µM (inactive)
same,GI50,[46],> 100 µM (inactive)
same,GI50,[47],> 100 µM (inactive)
same,GI50,[48],> 100 µM (inactive)
same,GI50,[49],> 100 µM (inactive)
same,GI50,[50],> 100 µM (inactive)
same,GI50,[51],> 100 µM (inactive)
same,GI50,[52],> 100 µM (inactive)
same,GI50,[53],66.2 µM (inactive)
same,GI50,[54],> 100 µM (inactive)
same,GI50,[55],> 100 µM (inactive)
